Common to all, as to type: cell-based
In data set [1] the test system is human skin explants. The experiment in a line: Epidermal turnover rate by BrdU assay in human skin organ culture. As to conditions: hyaluronic acid 0.2% with vehicle. On the procedure: (§1) The human skin organ culture was obtained from a healthy patient undergoing plastic surgery (person). The study was initiated at the day of surgery.
(§2) Fixed size skin explant pieces (0.64 cm^2) were cut from the skin tissue, using a designated press apparatus.
(§3) The skin pieces were prepared and maintained in air liquid interphase; the explants were laid in 6-well culture plates containing skin culture medium (Dulbecco Minimal Essential Medium (DMEM) supplemented with 100 U/ml penicillin and 100 μg/ml streptomycin), dermal side down in the medium and epidermis phasing up. The pieces were left to recover at 37° C. with 5% CO2 overnight. […]
(§4) The following control groups were also included in this study: Naïve group (Group 1), Vehicle group (mock treatment—hexose, Group 2), and positive control groups for viability and proliferation (10% SDS, Group 3 and 10 ng/ml EGF, Group 4, respectively). Hyaluronic acid was evaluated in this system (0.2%, Group 5). […]
The pieces were incubated at 37° C. with 5% CO2 under humidified atmosphere for 48 hr. […] The epidermal viability was evaluated by MTT, according to standard operating procedure (SOP). […] Concomitantly, the epidermal turnover rate was determined on the second set of test groups by BrdU assay according to the kit's manufacturer instructions. […]
Colorimetric evaluation of the turnover rate was recorded by Enzyme-Linked Immunosorbent Assay (ELISA) reader.

Data set [2] relates to Staphylococcus epidermidis. Put plainly: Bacterial growth, minimal inhibition concentration (MIC) assay. As to conditions: Ampicillin 100 μg/ml, positive control. On the procedure: The experiment was conducted in Staphylococcus epidermidis. Two Test Items were evaluated in this study; Levan and a Commercial reference (C.R.). The assay was carried out in triplicates. The in vitro activity of the Test items was evaluated by minimal inhibition concentration (MIC) assay. This was measured spectrometrically. The increase bacteria number versus time of incubation w/o or with increasing concentrations of the Test items was plotted. Streak plate isolation technique was performed to isolate a single homogenous colony, according to SOP. One colony of each bacterial strain was inoculated from agar plate into U-shape falcon tube at a final volume of 4 ml in BHI liquid broth. Cultures were incubated in a bacterial incubator-shaker at 37° C. with shaking at 250 rpm overnight. The cultures were diluted and grown to mid-log phase (O.D. Approx. 0.5; 600 nm). The exact O.D. was recorded [0.506]. Dose response analysis of six concentrations for each Test Item was performed in the bacteria as described in Table 7. The following control groups were included in this study: Naïve group (Group 1), Vehicle group (mock treatment—hexose, Group 2) and positive control groups (Ampicillin (100 μg/ml), Group 3). […] The absorbance was recorded at 600 nm. The absorbance of the blank control was subtracted from all measurements (0.107).

In data set [3] the test system is human skin explants. The experiment in a line: Epidermal viability by MTT in human skin organ culture. Conditions: 10% SDS, positive control, 48 hr. The method, then:
as §1, §2, §3, §4
The pieces were incubated at 37° C. with 5% CO2 under humidified atmosphere for 48 hr. […] The epidermal viability was evaluated by MTT, according to standard operating procedure (SOP). […] Concomitantly, the epidermal turnover rate was determined on the second set of test groups by BrdU assay according to the kit's manufacturer instructions.

Hyaluronic acid: the “effectiveness compared with the disclosed levan-based composition” value in data set [1] was “less effective”. `CC1(C)S[C@@H]2[C@H](NC(=O)[C@H](N)c3ccccc3)C(=O)N2[C@H]1C(=O)O` [Ampicillin]: the “bacterial growth (O.D. 600 nm)” value in data set [2] is recorded as “effectively blocked the bacterial growth”. For the compound `CCCCCCCCCCCCOS(=O)(=O)[O-].[Na+]` [SDS], the “skin viability (MTT)” value in data set [3] is listed as “reduced skin viability”.

For the origin of these results see patent US11964041B2, “Compositions comprising levan and use thereof” (GAN SHMUEL FOODS LTD., priority 2018, dated 2024).
